According to patent US9615577B2, “Herbicidally active cyclic dione compounds, or derivatives therefor, substituted by a phenyl which has an alkynyl-containing substituent” (Syngenta Limited, priority 2012, dated 2017):

Columns and labels:
Type in all cases: in vivo
[1] = test system: Alopecurus myosuroides (ALOMY); assay: Test 1A glasshouse assay for herbicidal activity, pre-emergence; conditions: 312 h, 250 g/ha, evaluated after 13 days, read-out: percentage phytotoxicity ALOMY
Outline: (§1)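 Damage is rated by eye as percent phytotoxicity on a 0–100 scale, 13 days after treatment. Compound is sprayed in acetone/water (50:50) with 0.5% Tween 20 onto pots one day (pre-emergence) or eight days (post-emergence) after sowing, with plants kept at 24/16 °C and 14 h light.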

[2] = test system: Amaranthus retroflexus (AMARE); assay: as above; conditions: 312 h, 250 g/ha, evaluated after 13 days, read-out: percentage phytotoxicity AMARE
Outline: as §1

[3] = test system: Echinochloa crus-galli (ECHCG); assay: as above; conditions: 312 h, 250 g/ha, evaluated after 13 days, read-out: percentage phytotoxicity ECHCG
Outline: as §1

[4] = test system: Ipomoea hederacea (IPOHE); assay: as above; conditions: 312 h, evaluated after 13 days, read-out: percentage phytotoxicity IPOHE
Outline: as §1

Setaria faberi (SETFA) [5] = assay: as above; conditions: 312 h, 250 g/ha, evaluated after 13 days, read-out: percentage phytotoxicity SETFA
Outline: as §1

Solanum nigrum (SOLNI) [6] = assay: as above; conditions: 312 h, evaluated after 13 days, read-out: percentage phytotoxicity SOLNI
Outline: as §1

[7] = test system: Alopecurus myosuroides (ALOMY); assay: Test 1A glasshouse assay for herbicidal activity, post-emergence; conditions: 312 h, 250 g/ha, evaluated after 13 days, read-out: percentage phytotoxicity ALOMY
Outline: as §1

[8] = test system: Amaranthus retroflexus (AMARE); assay: as above; conditions: 312 h, 250 g/ha, evaluated after 13 days, read-out: percentage phytotoxicity AMARE
Outline: as §1

[9] = test system: Echinochloa crus-galli (ECHCG); assay: as above; conditions: 312 h, 250 g/ha, evaluated after 13 days, read-out: percentage phytotoxicity ECHCG
Outline: as §1

[10] = test system: Ipomoea hederacea (IPOHE); assay: as above; conditions: 312 h, 250 g/ha, evaluated after 13 days, read-out: percentage phytotoxicity IPOHE
Outline: as §1

Setaria faberi (SETFA) [11] = assay: as above; conditions: 312 h, 250 g/ha, evaluated after 13 days, read-out: percentage phytotoxicity SETFA
Outline: as §1

Solanum nigrum (SOLNI) [12] = assay: as above; conditions: 312 h, 250 g/ha, evaluated after 13 days, read-out: percentage phytotoxicity SOLNI
Outline: as §1

[13] = test system: Alopecurus myosuroides (ALOMY); assay: Biological Example 2 comparative herbicidal data, post-emergence glasshouse screen; conditions: 312 h, read-out: Post-emergence herbicidal activities (percentage phytotoxicity) ALOMY
Outline: (§2)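 Plants grown 8 days in a glasshouse (24/16°C day/night, 14 h light, 65% humidity) were sprayed with compound in acetone/water (50:50) containing 0.5% Tween 20. They were kept under the same conditions and watered twice daily. Phytotoxicity was scored visually after 13 days (0 = no damage, 100 = total damage).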

[14] = test system: Echinochloa crus-galli (ECHCG); assay: as above; conditions: 312 h, read-out: Post-emergence herbicidal activities (percentage phytotoxicity) ECHCG
Outline: as §2

Setaria faberi (SETFA) [15] = assay: as above; conditions: 312 h, read-out: Post-emergence herbicidal activities (percentage phytotoxicity) SETFA
Outline: as §2

[16] = test system: Brachiaria decumbens (BRADC); assay: Biological Example 3 glasshouse assay for herbicidal activity, using various adjuvant systems, post-emergence; conditions: 8 g/ha, 14 DAA, adjuvant system per compound
Method: (§3) Post-emergence foliar spray application, 200 L/ha, usually one or two replicates for the weeds (depending on application rate), and two replicates for soybean.
(§4) Standard warm conditions (tropical), in glasshouse. Specifically, the glasshouse bay conditions are 24° C./18° C. day/night; 16/8 hours light/dark; 65% humidity.
(§5) The herbicidal application takes place at the following growth stages for plants which include inter alia one or more of the following plants (usually the herbicidal application takes place on at least the following six plants: DIGSA, ELEIN, SETFA, GLXMA Nikko, and GLXMA TMG133, and either BRADC or BRAPP):
Brachiaria decumbens (BRADC)— growth stage (GS) 12 or 13 (or GS 12)—or, if BRADC is not used, then Brachiaria platyphylla (BRAPP)—growth stage 12 or 13
(§6) Each test Compound is applied with one of the following adjuvant systems (all percentages are final concentrations in the aqueous spray mixture):
(§7) Adjuvant system 1: 0.5% v/v Adigor™ *, 1.0% v/v AMS (ammonium sulphate) and 12.5% v/v IPA (isopropyl alcohol).
Adjuvant system 2: 0.5% v/v Adigor™ * and 12.5% v/v IPA (isopropyl alcohol). […]
(§8) A visual assessment of the % herbicidal damage is made 7 and 14 Days After herbicide Application (DAA) (or, in a minority of cases, 7 and 15 DAA), and the results are recorded as % visual herbicidal damage where 0%=no damage to plants and 100%=plant totally killed. […]

[17] = test system: Digitaria sanguinalis (DIGSA); assay: as above; conditions: 8 g/ha, 0.5% v/v Adigor + 1.0% v/v AMS + 12.5% v/v IPA
Method: as §3, §4, §5
Digitaria sanguinalis (DIGSA)—growth stage 12 or 13
as §6, §7
(§9) Adjuvant system 2: 0.5% v/v Adigor™ * and 12.5% v/v IPA (isopropyl alcohol).
(§10) Adjuvant system 3: 0.5% v/v Hexamoll™ DINCH **, 1.0% v/v AMS (ammonium sulphate) and 12.5% v/v IPA (isopropyl alcohol).
Seeds of the weed plants, typically including inter alia [either Brachiaria decumbens (BRADC) or Brachiaria platyphylla (BRAPP)], Digitaria sanguinalis (DIGSA), Eleusine indica (ELEIN), Setaria faberi (SETFA) are sown in seed trays (troughs) containing clay loam soil (pH 7.0, 2.2% organic matter, “Trough Mix A”); and soybean seed is sown in pots containing the same soil with 3 soybean seedlings per pot. The plants are sprayed with the test herbicide when they reach the growth stages mentioned above. […]
as §8

Setaria faberi (SETFA) [18] = assay: as above; conditions: 8 g/ha, 0.5% v/v Adigor + 1.0% v/v AMS + 12.5% v/v IPA
Method: as §3, §4, §5
Setaria faberi (SETFA)—growth stage 12 or 13
as §6, §7, §9, §10
(§11) Seeds of the weed plants, typically including inter alia [either Brachiaria decumbens (BRADC) or Brachiaria platyphylla (BRAPP)], Digitaria sanguinalis (DIGSA), Eleusine indica (ELEIN), Setaria faberi (SETFA) are sown in seed trays (troughs) containing clay loam soil (pH 7.0, 2.2% organic matter, “Trough Mix A”); and soybean seed is sown in pots containing the same soil with 3 soybean seedlings per pot. The plants are sprayed with the test herbicide when they reach the growth stages mentioned above.
(§12) The test herbicidal solutions are prepared by mixing the appropriate aliquots of the test substance(s) and the adjuvant system indicated above *** in deionised water to give the desired treatment concentration. […]
as §8

[19] = test system: Echinochloa crus-galli (ECHCG); assay: as above; conditions: 8 g/ha, 14 DAA, adjuvant system per compound
Method: as §3, §4, §5
Echinochloa crus-galli (ECHCG)—growth stage 12 or 13
as §6, §7, §9
Adjuvant system 3: 0.5% v/v Hexamoll™ DINCH **, 1.0% v/v AMS (ammonium sulphate) and 12.5% v/v IPA (isopropyl alcohol). […]
as §8

[20] = test system: Abutilon theophasti Medik. (ABUTH); assay: Test 1A glasshouse assay for herbicidal activity, pre-emergence; conditions: 312 h, 250 g/ha, evaluated after 13 days, read-out: percentage phytotoxicity ABUTH
Outline: as §1

[21] = test system: Abutilon theophasti Medik. (ABUTH); assay: Test 1A glasshouse assay for herbicidal activity, post-emergence; conditions: 312 h, 250 g/ha, evaluated after 13 days, read-out: percentage phytotoxicity ABUTH
Outline: as §1

Eleusine indica (ELEIN) = assay: Biological Example 3 glasshouse assay for herbicidal activity, using various adjuvant systems, post-emergence; conditions: 8 g/ha, 15 DAA, 0.5% v/v Adigor + 1.0% v/v AMS + 12.5% v/v IPA
Method: as §3, §4, §5
Eleusine indica (ELEIN)—growth stage 12 or 13
as §6, §7, §9, §10, §11, §12, §8

[22] = test system: Amarantus retroflexus (AMARE); assay: Biological Example 2 comparative herbicidal data, post-emergence glasshouse screen; conditions: Amaranthus retroflexus, read-out: Post-emergence herbicidal activities (percentage phytotoxicity) AMARE
[23] = test system: Abutilon theophasti Medik. (ABUTH); assay: as above; conditions: read-out: Post-emergence herbicidal activities (percentage phytotoxicity) ABUTH

Compound: Cc1cc(C#CCl)ccc1C1C(=O)C(C)(C)OC(C)(C)C1=O [Compound A-7]
- pest or weed control at 250 g/ha [1]: 80%
- pest or weed control at 250 g/ha [2]: 60%
- pest or weed control at 250 g/ha [3]: 80%
- pest or weed control at 250 g/ha [4]: 20%
- pest or weed control at 250 g/ha (Setaria faberi (SETFA) [5]): 30%
- pest or weed control at 250 g/ha (Solanum nigrum (SOLNI) [6]): 40%
- pest or weed control at 250 g/ha [7]: 80%
- pest or weed control at 250 g/ha [8]: 0%
- pest or weed control at 250 g/ha [9]: 80%
- pest or weed control at 250 g/ha [10]: 20%
- pest or weed control at 250 g/ha (Setaria faberi (SETFA) [11]): 80%
- pest or weed control at 250 g/ha (Solanum nigrum (SOLNI) [12]): 50%
- pest or weed control at 15.625 g/ha ([13]; 15.625 g/ha application rate): 30%
- pest or weed control at 62.5 g/ha ([13]; 62.5 g/ha application rate): 50%
- pest or weed control at 15.625 g/ha ([14]; 15.625 g/ha application rate): 0%
- pest or weed control at 62.5 g/ha ([14]; 62.5 g/ha application rate): 60%
- pest or weed control at 15.625 g/ha (Setaria faberi (SETFA) [15]; 15.625 g/ha application rate): 40%
- pest or weed control at 62.5 g/ha (Setaria faberi (SETFA) [15]; 62.5 g/ha application rate): 60%

Compound: COc1cc(C#CCl)cc(Cl)c1C1C(=O)C2CCC(C2)C1=O (stereo not drawn) [Compound A-25, 3-[2-Chloro-4-(2-chloroethynyl)-6-methoxy-phenyl]bicyclo[3.2.1]octane-2,4-dione]
- percentage control of Brachiaria decumbens (BRADC) [16]: 15%
- percentage control of Digitaria sanguinalis (DIGSA) ([17]; 14 DAA): 60%
- percentage control of Setaria faberi (SETFA) (Setaria faberi (SETFA) [18]; 14 DAA): 40%
- percentage control of Echinochloa crus-galli (ECHCG) [19]: 45%

Compound: C#Cc1cc(Cl)c(C2C(=O)CC3(CCOCC3)CC2=O)c(OC)c1 [Compound B-1, 9-(2-Chloro-4-ethynyl-6-methoxy-phenyl)-3-oxaspiro[5.5]undecane-8,10-dione]
- pest or weed control at 250 g/ha [20]: 0%
- pest or weed control at 250 g/ha [1]: 90%
- pest or weed control at 250 g/ha [2]: 20%
- pest or weed control at 250 g/ha [3]: 100%
- pest or weed control at 250 g/ha (Setaria faberi (SETFA) [5]): 80%
- pest or weed control at 250 g/ha [21]: 60%
- pest or weed control at 250 g/ha [7]: 100%
- pest or weed control at 250 g/ha [8]: 0%
- pest or weed control at 250 g/ha [9]: 100%
- pest or weed control at 250 g/ha (Setaria faberi (SETFA) [11]): 100%
- pest or weed control at 8 g/ha ([13]; 8 g/ha application rate): 10%
- pest or weed control at 30 g/ha ([13]; 30 g/ha application rate): 70%
- pest or weed control at 8 g/ha ([14]; 8 g/ha application rate): 20%
- pest or weed control at 30 g/ha ([14]; 30 g/ha application rate): 80%
- pest or weed control at 8 g/ha (Setaria faberi (SETFA) [15]; 8 g/ha application rate): 30%
- pest or weed control at 30 g/ha (Setaria faberi (SETFA) [15]; 30 g/ha application rate): 70%
- percentage control of Digitaria sanguinalis (DIGSA) ([17]; 15 DAA): 85%
- percentage control of Eleusine indica (ELEIN) (Eleusine indica (ELEIN)): 20%
- percentage control of Setaria faberi (SETFA) (Setaria faberi (SETFA) [18]; 15 DAA): 50%
- pest or weed control at 8 g/ha ([22]; 8 g/ha application rate): 0%
- pest or weed control at 30 g/ha ([22]; 30 g/ha application rate): 0%
- pest or weed control at 8 g/ha ([23]; 8 g/ha application rate): 0%
- pest or weed control at 30 g/ha ([23]; 30 g/ha application rate): 10%
